10 molecules from ChEMBL document CHEMBL3046351, “Insecticidal, antifeedant and antifungal activities of two glucosides isolated from the seeds of Simmondsia chinensis” (Ind Crops Prod, 2007) can be followed below.

≈ marks a conversion by molar mass, not a printed value.

Assay [1] deals with Rhizoctonia solani. The experiment in a line: Antifungal activity against Rhizoctonia solani. The assay is classed as functional, organism-based.
Assay [2] has as its system Botrytis fabae. Put plainly: Antifungal activity against Botrytis fabae by radial growth inhibition method. The assay is classed as functional, organism-based.
Assay [3] has as its system Rhizoctonia solani. Put plainly: Antifungal activity against Rhizoctonia solani by radial growth inhibition method. The assay is classed as functional, organism-based.
Assay [4] concerns Fusarium oxysporum. Put plainly: Antifungal activity against Fusarium oxysporum by radial growth inhibition method. The assay is classed as functional, organism-based.
For assay [5], the system named is Globisporangium debaryanum. Put plainly: Antifungal activity against Pythium debaryanum by radial growth inhibition method. The assay is classed as functional, organism-based.
For assay [6], the system named is Spodoptera littoralis. Put plainly: Antifeedant activity against third instar larvae of Spodoptera littoralis fed on compound-treated cotton leaf disks assessed as antifeedant index at 50 ug/ml measured after 24 hr by no-choice leaf disc method. The assay is classed as functional.
Assay [7] has as its system Spodoptera littoralis. The experiment in a line: Antifeedant activity against third instar larvae of Spodoptera littoralis fed on compound-treated castor bean leaf disks assessed as antifeedant index at 500 ug/ml measured after 24 hr by no-choice leaf disc method.
Assay [8] concerns Spodoptera littoralis. Put plainly: Antifeedant activity against third instar larvae of Spodoptera littoralis fed on compound-treated castor bean leaf disks measured after 24 hr by no-choice leaf disc method.
In assay [9] the test system is Spodoptera littoralis. Put plainly: Antifeedant activity against third instar larvae of Spodoptera littoralis fed on compound-treated castor bean leaf disks assessed as antifeedant index at 1000 ug/ml measured after 24 hr by no-choice leaf disc method.
In assay [10] the test system is Spodoptera littoralis. The experiment in a line: Insecticidal activity against third instar larvae of topically treated Spodoptera littoralis assessed per larva after 24 hr. The assay is classed as functional.
Assay [11] concerns Spodoptera littoralis. The experiment in a line: Antifeedant activity against third instar larvae of Spodoptera littoralis fed on compound-treated cotton leaf disks assessed as antifeedant index at 10 ug/ml measured after 24 hr by no-choice leaf disc method. The assay is classed as functional.
In assay [12] the test system is Spodoptera littoralis. Put plainly: Antifeedant activity against third instar larvae of Spodoptera littoralis fed on compound-treated cotton leaf disks assessed as antifeedant index at 100 ug/ml measured after 24 hr by no-choice leaf disc method. The assay is classed as functional.

A word on the EC50: it is the concentration needed to bring the measured effect to its halfway point.

`Cc1ccc(C(C)C)cc1O` [CARVACROL] returned an EC50 in assay [1] of 41 µg/mL (≈ 273 µM).

For `CC12CCC(CC1=O)C2(C)C` (stereo not drawn) [CAMPHOR], the EC50 in [1] worked out at 488 µg/mL (≈ 3210 µM).

For `COP(=S)(OC)Oc1c(Cl)cc(C)cc1Cl` [TOLCOFOS-METHYL], the EC50 was determined as 21.9 µg/mL (≈ 72.7 µM) in assay [2], 5.7 µg/mL (≈ 18.9 µM) in assay [3], 51.3 µg/mL (≈ 170 µM) in assay [4] and 8.9 µg/mL (≈ 29.6 µM) in [5].

With `COc1cc(/C=C\C(=O)O[C@@H]2[C@@H](O[C@@H]3C[C@H](OC)[C@H](OC)[C@@H](O)/C3=C/C#N)O[C@@H](CO)[C@H](O)[C@H]2O)ccc1O` [SIMMONDSIN 2'-FERULATE], the AFI in [6] stood at 44.2%; in assay [7] it was 76.9%; in [9] it was 90%; in assay [11], 32.3%; in assay [12], 60.9%. Besides, the Activity result in assay [8] was “Dose-dependent effect”. Also, the EC50 came out at 146 µg/mL (≈ 265 µM) in assay [2], 146 µg/mL (≈ 265 µM) in assay [3], 293 µg/mL (≈ 532 µM) in [4] and 154 µg/mL (≈ 279 µM) in assay [5]. The same molecule came in with an LD50 in assay [10] of 2.58 µg.

In the case of `Cc1ccc(C(C)C)c(O)c1` [THYMOL], a half-maximal effect in [1] (EC50) was put at 4 µg/mL (≈ 26.6 µM).

In the case of `CC1(C)C2CCC1(C)C(O)C2` (stereo not drawn) [BORNEOL], the midpoint of the response in [1], the EC50, lay at 447 µg/mL (≈ 2900 µM).

As to `CO[C@H]1[C@@H](OC)C[C@@H](O[C@H]2O[C@@H](CO)[C@H](O)[C@@H](O)[C@@H]2O)/C(=C\C#N)[C@@H]1O` [SIMMONDSIN], the AFI turned out to be 46.2% in [6]; 78.9% in [7]; 92.1% in assay [9]; 38.1% in [11]; 63.4% in [12]. Moreover, the Activity result in assay [8] was “Dose-dependent effect”. For the same molecule, the half-maximal effective concentration (EC50) was 116 µg/mL (≈ 310 µM) in assay [2], 129 µg/mL (≈ 344 µM) in assay [3], 223 µg/mL (≈ 595 µM) in assay [4] and 147 µg/mL (≈ 391 µM) in assay [5]. This molecule also showed an LD50 in assay [10] of 1.49 µg.

Take `C=C(C)C1CC=C(C)[C@@H](O)C1` (stereo partly drawn) [CARVEOL]: it took 92 µg/mL (≈ 604 µM) to reach a half-maximal effect in [1] (EC50).

For `O=C/C=C/c1ccccc1` [CINNAMALDEHYDE], the concentration for a half-maximal effect (EC50) in assay [1] was 169 µg/mL (≈ 1280 µM).

On to `CCOP(=S)(OCC)Oc1nc(Cl)c(Cl)cc1Cl` [CHLORPYRIFOS], for which the LD50 in assay [10] was found to be 0.12 µg.
